Results from publication PMC3345971 (Bioorganic & medicinal chemistry, 2012).
pIC50: −log10 of the molar value.

How the values were obtained:
[1] = tested on: DAT; conditions: cited from earlier work; for pIC50: read-out: DAT IC50, oxatropenes substituted at the C3 position
[2] = tested on: SERT; conditions: cited from earlier work
[3] = target: human dopamine transporter (hDAT) (Macaca fascicularis, UniProt Q9GJT6); test: Inhibition of [3H]WIN35,428 binding to the dopamine transporter; conditions: DAT over SERT
Sequence of human dopamine transporter (hDAT) (Q9GJT6 whole entry): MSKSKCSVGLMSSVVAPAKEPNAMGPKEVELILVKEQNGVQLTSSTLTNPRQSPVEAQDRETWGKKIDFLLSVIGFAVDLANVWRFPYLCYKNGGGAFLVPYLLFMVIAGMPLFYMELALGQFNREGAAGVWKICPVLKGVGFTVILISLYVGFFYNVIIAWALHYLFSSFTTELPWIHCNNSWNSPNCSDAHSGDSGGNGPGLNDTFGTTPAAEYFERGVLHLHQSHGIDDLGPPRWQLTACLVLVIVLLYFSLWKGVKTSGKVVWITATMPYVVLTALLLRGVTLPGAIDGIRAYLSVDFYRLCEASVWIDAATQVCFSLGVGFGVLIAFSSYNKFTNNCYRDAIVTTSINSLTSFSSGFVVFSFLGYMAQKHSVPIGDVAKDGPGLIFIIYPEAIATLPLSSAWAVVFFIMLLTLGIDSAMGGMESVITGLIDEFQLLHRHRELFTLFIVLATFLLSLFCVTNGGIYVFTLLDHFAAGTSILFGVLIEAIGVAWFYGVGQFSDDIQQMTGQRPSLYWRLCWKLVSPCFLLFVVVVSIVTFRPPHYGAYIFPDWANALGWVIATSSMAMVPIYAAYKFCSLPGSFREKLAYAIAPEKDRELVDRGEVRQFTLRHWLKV

2β-Carbomethoxy-3 β-[2-furylphenyl]-8-azabicyclo[3.2.1]tropane
DAT binding ([1]; reported by Tamagnan et al): 3.76 nM
SERT binding ([2]; reported by Tamagnan et al): 0.15 nM

2β-carbomethoxy-3β-(2-naphthyl)-8-aza-bicyclo[3.2.1]octanes
inhibition of DAT [1]: 0.49 nM
inhibition of SERT [2]: 2.19 nM

COC(=O)C1=C(c2cccc3ccccc23)CC2CCC1O2 (centres unmarked) [oxatropene with 1-naphthyl]
pIC50 [1]: 5.76

COC(=O)C1=C(c2ccc3cc4ccccc4cc3c2)CC2CCC1O2 (centres unmarked) [oxatropene with 2-anthracenyl]
pIC50 [1]: < 4.40

COC(=O)C1=C(c2ccc3ccccc3c2)CC2CCC1O2 (centres unmarked) [oxatropene with 2-naphthyl]
pIC50 [1]: 7.70

(R,S)-3-[2-Benzothiophen-2-yl] -8-oxa-bicyclo[3.2.1]oct-2-ene-2carboxylic acid methyl ester [14m]
selectivity for DAT vs. SERT [3]: 177 fold
